These results are taken from US12398132B2, “Derivatives of 4-(imidazo[1,2-a]pyridin-3-yl)-n-(pyridinyl)pyrimidin-2-amine as therapeutic agents” (AUCENTRA THERAPEUTICS PTY LTD, priority 2019, dated 2025).

Numbering of substitutions follows the chain as printed. Like-named read-outs stand apart in the source and are kept apart here.

One test concerns the target CDK6/D3 (Homo sapiens, UniProt Q00534). The test is described as follows: ADP Glo kinase assay, CDK6/D3. It is filed as biochemical. Particulars: CDK6D3; for remaining activity at 10 µM: compound at 10 μM, read-out: residual enzymatic activity (%) at 10 μM; for Ki: apparent Ki calculated from Km (ATP) and IC50, read-out: CDK inhibition Ki.
A further test deals with MV-4-11. Kind of test: Proliferation assay (resazurin/MTT), MV-4-11. Type of test: cell-based. The settings on record: Homo sapiens, MV4-11, read-out: 72 h Growth inhibition GI50, MV-4-11 cells. In general terms: The colour change of resazurin is a common sign of viable cells or microbes.
The target of test [1] is T1, CDK7HMAT1 (Homo sapiens, UniProt P50613). Kind of test: biochemical.
Another test deals with CDK4/D1 (Homo sapiens, UniProt P11802). The test is described as follows: ADP Glo kinase assay, CDK4/D1. Type of test: biochemical. The settings on record: CDK4D1; for remaining activity at 10 µM: compound at 10 μM, read-out: residual enzymatic activity (%) at 10 μM; for Ki: apparent Ki calculated from Km (ATP) and IC50, read-out: CDK inhibition Ki.
The target in another test is CDK9/CyclinT1 (Homo sapiens, UniProt P50750). The test is described as follows: ADP Glo kinase assay, CDK9/CyclinT1. Particulars: CDK9T1; for Ki: apparent Ki calculated from Km (ATP) and IC50, read-out: CDK inhibition Ki. It is filed as biochemical.
For test [2], the target named is T2, CDK2E1 (Homo sapiens, UniProt P24941). The settings on record: 1 µM.
The next test relates to U937. Kind of test: Proliferation assay (resazurin/MTT), U937. Particulars: Homo sapiens, U-937, read-out: 72 h Growth inhibition GI50, U937 cells. Type of test: cell-based.
In test [3] the target is T3, CDK1B (Homo sapiens, UniProt P06493).
For test [4], the target named is T3, CDK1B. Kind of test: biochemical.
Test [5] has as its target T2, CDK2E1. The test is described as follows: biochemical.
In test [6] the target is T1, CDK7HMAT1. The settings on record: 10 µM.
Another test addresses T4, FLT3(ITD) (Homo sapiens, UniProt P36888).
T4 sequence (P36888 1-993): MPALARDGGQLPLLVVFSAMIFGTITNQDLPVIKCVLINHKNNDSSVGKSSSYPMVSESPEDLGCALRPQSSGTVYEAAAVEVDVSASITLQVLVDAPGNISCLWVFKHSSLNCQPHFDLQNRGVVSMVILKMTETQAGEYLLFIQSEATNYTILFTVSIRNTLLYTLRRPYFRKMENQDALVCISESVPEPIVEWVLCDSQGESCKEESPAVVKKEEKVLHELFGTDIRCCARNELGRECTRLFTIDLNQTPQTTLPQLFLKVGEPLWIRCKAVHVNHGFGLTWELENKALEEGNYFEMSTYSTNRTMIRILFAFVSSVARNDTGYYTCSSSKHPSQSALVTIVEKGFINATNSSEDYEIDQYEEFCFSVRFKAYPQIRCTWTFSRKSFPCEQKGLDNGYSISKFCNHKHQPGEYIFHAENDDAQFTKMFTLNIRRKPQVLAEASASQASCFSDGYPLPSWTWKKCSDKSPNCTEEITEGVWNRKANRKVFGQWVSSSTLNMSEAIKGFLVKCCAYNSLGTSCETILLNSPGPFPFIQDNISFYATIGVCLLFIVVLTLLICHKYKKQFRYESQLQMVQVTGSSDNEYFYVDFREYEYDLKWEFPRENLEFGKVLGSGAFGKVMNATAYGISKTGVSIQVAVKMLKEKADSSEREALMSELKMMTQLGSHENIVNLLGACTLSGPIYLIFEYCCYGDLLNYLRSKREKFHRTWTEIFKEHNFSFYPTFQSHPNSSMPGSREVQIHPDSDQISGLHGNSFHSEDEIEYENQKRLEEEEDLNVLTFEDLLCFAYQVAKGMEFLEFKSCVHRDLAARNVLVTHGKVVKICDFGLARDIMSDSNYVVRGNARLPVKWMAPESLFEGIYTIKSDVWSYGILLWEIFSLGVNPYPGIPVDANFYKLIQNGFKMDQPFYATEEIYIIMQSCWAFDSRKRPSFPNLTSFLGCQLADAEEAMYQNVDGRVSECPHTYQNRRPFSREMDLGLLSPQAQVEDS
The test is described as follows: ADP Glo kinase assay, FLT3(ITD). It is filed as biochemical. Particulars: apparent Ki calculated from Km (ATP) and IC50, read-out: FLT3 inhibition Ki.

The target of a further test is T5, FLT3(WT) (Homo sapiens, UniProt P36888).
T5 sequence (P36888 27-993): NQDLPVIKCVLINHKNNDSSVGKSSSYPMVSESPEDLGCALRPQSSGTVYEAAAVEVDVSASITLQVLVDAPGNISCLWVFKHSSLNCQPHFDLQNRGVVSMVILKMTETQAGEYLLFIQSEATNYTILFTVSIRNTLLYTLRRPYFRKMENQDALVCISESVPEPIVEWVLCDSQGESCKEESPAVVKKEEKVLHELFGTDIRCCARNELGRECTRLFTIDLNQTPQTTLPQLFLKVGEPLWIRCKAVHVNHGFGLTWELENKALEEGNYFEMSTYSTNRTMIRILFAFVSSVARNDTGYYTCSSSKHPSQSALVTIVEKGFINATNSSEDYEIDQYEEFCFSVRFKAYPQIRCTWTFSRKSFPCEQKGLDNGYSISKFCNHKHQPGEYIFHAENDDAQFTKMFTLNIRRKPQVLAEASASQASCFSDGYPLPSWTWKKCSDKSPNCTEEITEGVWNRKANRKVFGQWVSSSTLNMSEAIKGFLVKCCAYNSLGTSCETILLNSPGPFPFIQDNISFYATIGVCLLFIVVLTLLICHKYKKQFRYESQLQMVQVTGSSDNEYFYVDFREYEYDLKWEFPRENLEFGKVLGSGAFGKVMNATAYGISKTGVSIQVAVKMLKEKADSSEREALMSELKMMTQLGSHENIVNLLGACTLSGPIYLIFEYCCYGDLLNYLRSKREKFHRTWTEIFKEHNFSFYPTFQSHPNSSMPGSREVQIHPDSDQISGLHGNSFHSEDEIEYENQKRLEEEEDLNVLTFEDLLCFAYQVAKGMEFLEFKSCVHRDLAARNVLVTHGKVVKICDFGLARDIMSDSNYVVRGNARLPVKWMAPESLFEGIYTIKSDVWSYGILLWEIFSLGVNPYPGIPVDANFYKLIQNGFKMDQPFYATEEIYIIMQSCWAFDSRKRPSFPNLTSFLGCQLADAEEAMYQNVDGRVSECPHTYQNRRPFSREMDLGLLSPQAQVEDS
Kind of test: ADP Glo kinase assay, FLT3(WT). Particulars: compound at 1 μM, read-out: residual enzymatic activity (%) at 1 μM. It is filed as biochemical. For orientation: ADP-Glo turns the ADP formed in a reaction into a luminescent signal.

Another test addresses T6, FLT3(D835Y) (Homo sapiens, UniProt P36888, D835Y).
T6 sequence (P36888 27-993 D835Y): T5 sequence (P36888 27-993) with D809Y
Kind of test: ADP Glo kinase assay, FLT3(D835Y). Type of test: biochemical. The settings on record: apparent Ki calculated from Km (ATP) and IC50, read-out: FLT3 inhibition Ki.

Setting [7] is: compound at 1 μM (values marked *), read-out: residual enzymatic activity (%) at 1 μM*.

T3 sequence (P06493 whole entry): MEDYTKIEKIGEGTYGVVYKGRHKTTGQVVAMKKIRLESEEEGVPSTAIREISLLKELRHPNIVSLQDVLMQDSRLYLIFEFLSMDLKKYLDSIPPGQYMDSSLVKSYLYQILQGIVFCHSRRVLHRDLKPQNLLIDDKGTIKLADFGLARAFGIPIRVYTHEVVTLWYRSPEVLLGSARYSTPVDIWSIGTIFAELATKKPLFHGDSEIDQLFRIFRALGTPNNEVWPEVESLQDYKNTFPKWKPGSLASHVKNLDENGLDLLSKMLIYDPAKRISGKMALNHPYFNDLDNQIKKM
T3 sequence (P14635 whole entry partner): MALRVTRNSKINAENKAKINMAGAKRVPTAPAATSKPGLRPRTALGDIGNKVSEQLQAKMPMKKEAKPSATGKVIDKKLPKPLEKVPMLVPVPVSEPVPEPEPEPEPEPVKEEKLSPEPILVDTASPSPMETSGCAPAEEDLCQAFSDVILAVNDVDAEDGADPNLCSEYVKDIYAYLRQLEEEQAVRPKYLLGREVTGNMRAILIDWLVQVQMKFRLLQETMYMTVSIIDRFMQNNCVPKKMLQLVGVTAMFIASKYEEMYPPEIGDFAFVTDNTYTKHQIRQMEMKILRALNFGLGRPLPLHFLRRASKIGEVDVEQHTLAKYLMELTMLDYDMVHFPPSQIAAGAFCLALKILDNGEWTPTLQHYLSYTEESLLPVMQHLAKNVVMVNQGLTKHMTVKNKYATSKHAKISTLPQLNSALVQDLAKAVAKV
T1 sequence (P50613 whole entry): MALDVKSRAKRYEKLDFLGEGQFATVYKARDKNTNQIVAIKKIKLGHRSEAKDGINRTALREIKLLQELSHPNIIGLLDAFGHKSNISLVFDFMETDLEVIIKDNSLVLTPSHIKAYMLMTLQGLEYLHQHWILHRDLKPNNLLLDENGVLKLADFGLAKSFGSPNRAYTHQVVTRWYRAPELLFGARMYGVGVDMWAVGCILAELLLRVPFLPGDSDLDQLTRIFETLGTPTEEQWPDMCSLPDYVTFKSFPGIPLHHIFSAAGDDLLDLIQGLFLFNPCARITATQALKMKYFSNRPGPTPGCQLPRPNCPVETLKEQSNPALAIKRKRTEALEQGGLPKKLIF
T1 sequence (P51946 whole entry partner): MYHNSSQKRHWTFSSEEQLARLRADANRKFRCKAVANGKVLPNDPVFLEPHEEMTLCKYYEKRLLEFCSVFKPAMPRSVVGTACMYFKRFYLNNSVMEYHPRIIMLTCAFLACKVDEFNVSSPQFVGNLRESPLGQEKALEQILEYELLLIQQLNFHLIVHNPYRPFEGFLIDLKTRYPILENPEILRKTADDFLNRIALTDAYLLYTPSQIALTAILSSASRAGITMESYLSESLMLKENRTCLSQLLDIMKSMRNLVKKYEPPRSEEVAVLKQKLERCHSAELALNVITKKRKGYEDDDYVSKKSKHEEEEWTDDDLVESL
T1 sequence (P51948 whole entry partner): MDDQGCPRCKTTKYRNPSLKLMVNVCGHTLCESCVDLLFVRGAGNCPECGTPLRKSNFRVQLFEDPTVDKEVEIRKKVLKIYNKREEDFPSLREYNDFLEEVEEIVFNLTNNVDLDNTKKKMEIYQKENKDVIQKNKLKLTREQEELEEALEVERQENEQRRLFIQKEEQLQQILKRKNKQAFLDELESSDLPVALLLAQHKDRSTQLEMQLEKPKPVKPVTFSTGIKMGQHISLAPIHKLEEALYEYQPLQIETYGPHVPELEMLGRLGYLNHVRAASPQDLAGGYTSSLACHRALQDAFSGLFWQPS
CDK4/D1, sequence (P11802 whole entry, species assumed): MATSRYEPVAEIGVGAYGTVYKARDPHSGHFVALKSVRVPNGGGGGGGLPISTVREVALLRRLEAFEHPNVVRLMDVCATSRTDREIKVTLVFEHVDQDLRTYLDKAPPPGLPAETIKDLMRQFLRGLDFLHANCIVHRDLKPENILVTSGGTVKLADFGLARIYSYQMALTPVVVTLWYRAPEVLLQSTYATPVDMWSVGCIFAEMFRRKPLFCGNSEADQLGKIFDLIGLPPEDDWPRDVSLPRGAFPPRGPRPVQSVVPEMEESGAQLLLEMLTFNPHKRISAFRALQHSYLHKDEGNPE
CDK4/D1, sequence (P24385 whole entry partner, species assumed): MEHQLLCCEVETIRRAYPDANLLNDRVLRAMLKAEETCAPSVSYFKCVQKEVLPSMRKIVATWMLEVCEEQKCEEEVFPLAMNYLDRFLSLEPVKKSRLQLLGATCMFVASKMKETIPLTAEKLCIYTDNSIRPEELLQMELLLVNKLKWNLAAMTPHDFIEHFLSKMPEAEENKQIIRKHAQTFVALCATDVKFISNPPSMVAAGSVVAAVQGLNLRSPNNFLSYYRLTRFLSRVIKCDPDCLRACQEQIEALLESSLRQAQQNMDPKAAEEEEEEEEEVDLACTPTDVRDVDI
CDK6/D3, sequence (Q00534 whole entry, species assumed): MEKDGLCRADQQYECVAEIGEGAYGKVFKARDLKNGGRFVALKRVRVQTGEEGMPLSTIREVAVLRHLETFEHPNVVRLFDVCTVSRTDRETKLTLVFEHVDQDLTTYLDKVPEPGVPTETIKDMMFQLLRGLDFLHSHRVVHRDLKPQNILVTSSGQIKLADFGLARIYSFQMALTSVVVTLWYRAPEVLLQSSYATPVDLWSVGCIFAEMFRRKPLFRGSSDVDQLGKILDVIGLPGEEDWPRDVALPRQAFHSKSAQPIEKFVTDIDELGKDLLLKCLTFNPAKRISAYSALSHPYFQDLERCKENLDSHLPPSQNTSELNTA
CDK6/D3, sequence (P30281 whole entry partner, species assumed): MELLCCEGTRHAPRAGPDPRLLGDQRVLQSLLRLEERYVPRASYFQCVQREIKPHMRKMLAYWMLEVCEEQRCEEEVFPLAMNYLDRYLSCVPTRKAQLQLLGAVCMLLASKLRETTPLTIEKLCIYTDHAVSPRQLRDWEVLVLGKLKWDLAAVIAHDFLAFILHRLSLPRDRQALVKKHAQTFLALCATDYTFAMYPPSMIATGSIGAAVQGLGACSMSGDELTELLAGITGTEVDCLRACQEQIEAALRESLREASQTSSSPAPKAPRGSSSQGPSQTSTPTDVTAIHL
CDK9/CyclinT1, sequence (P50750 whole entry, species assumed): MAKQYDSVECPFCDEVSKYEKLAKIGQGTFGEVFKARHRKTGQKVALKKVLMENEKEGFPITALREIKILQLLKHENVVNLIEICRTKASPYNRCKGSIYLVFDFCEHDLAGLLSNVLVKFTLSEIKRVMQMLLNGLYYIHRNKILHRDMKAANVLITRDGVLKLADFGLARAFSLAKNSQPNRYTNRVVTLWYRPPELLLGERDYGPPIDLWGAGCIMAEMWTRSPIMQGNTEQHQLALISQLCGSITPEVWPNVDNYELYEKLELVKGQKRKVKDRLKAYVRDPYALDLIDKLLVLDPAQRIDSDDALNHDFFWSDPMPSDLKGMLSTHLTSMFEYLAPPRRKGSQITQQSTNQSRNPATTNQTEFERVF
CDK9/CyclinT1, sequence (O60563 whole entry partner, species assumed): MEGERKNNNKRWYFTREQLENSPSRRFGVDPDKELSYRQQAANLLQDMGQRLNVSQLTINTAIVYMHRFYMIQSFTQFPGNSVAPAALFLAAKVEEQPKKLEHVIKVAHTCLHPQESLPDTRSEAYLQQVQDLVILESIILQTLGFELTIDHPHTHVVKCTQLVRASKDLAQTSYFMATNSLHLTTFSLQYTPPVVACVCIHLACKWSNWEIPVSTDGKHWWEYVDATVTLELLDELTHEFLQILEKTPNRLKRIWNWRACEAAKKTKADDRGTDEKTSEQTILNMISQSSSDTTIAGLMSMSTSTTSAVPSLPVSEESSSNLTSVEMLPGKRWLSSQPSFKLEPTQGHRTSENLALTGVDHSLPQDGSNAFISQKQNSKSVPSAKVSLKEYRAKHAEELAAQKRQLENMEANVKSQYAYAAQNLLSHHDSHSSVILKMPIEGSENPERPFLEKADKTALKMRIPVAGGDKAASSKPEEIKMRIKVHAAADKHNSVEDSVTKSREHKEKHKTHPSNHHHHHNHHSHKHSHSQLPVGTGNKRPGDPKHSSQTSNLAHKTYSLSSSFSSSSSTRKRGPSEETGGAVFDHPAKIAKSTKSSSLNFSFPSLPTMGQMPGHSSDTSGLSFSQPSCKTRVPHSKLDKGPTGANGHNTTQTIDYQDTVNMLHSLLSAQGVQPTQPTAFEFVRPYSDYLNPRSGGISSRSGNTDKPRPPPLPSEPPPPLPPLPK
Procedure for CDK4/D1: (§1) Inhibition of FLT3(WT), FLT3(ITD) and FLT3(D835Y) and CDKs were determined using ADP Glo Kinase assays (Promega Corporation, Madison, WI, USA). […] Similarly, kinase reaction for CDK4/D1 and CDK6/D3 was performed with reaction buffer (40 nM Tris base pH 7.5, 20 mM MgCl2, 0.4 mM DTT), 0.1 mg/ml BSA and RB-CTF substrate (retinoblastoma protein1 C-terminal fraction). For CDK9/CyclinT1, the kinase reaction was performed with the standard assay buffer and Kinase Dilution Buffer and RBER-IRStide substrate. Half-maximal inhibition (IC50) values were calculated using a 4-parameter logistic non-linear regression model with Graphpad prism (Version 6.0). Apparent inhibition constants (Ki) values were calculated from Km (ATP) and IC50 values for the respective kinases.
Procedure for CDK9/CyclinT1: as §1
Procedure for FLT3(D835Y): (§2) Inhibition of FLT3(WT), FLT3(ITD) and FLT3(D835Y) and CDKs were determined using ADP Glo Kinase assays (Promega Corporation, Madison, WI, USA). […] The kinase reactions are run for an optimised time period (FLT3-WT: 120 min, FLT3-ITD: 80 min, FLT3-D835Y: 100 min) at room temperature and then the reaction was stopped by adding 5 μL of ADP Glo reagent. […] Positive and negative controls were performed in 0.5% DMSO in the presence and absence of each FLT3 kinase, respectively. […] Half-maximal inhibition (IC50) values were calculated using a 4-parameter logistic non-linear regression model with Graphpad prism (Version 6.0). Apparent inhibition constants (Ki) values were calculated from Km (ATP) and IC50 values for the respective kinases.
Procedure for FLT3(WT): as §2

The term GI50 denotes the concentration giving 50% growth inhibition. Take `CC(=O)N1CCN(c2ccc(Nc3nccc(-c4cnc5ccc(-c6cn[nH]c6)cn45)n3)nc2)CC1` [Cmpd 24, 1-(4-(6-((4-(6-(1H-Pyrazol-4-yl)imidazo[1,2-a]pyridin-3-yl)pyrimidin-2-yl)amino)pyridin-3-yl)piperazin-1-yl)ethan-1-one]: the figures for the remaining activity at 10 µM at CDK6/D3 and on CDK4/D1 were 61% and 66%, respectively. Also, the concentration for 50% growth inhibition (GI50) in the test on MV-4-11 was found to be 25 nM; in the test with U937, 466 nM. Besides, the values for the Ki at CDK7HMAT1 [1] and at CDK9/CyclinT1 were 1190 nM and 125 nM, respectively. The activity is 24% on CDK2E1 [2] and 35% on CDK1B [3] (10 µM).
Regarding `CC(=O)N1CCN(c2ccc(Nc3nccc(-c4cnc5ccc(-c6cccs6)cn45)n3)nc2)CC1` [Cmpd 17, 1-(4-(6-((4-(6-(Thiophen-2-yl)imidazo[1,2-a]pyridin-3-yl)pyrimidin-2-yl)amino)pyridin-3-yl)piperazin-1-yl)ethan-1-one], the Ki on CDK1B [4] was greater than 500 nM; on CDK7HMAT1 [1], 148 nM; at CDK4/D1 it was 340 nM; on CDK9/CyclinT1, 427 nM. For the same molecule, on CDK6/D3, the remaining activity at 10 µM came to 76%. Also, the GI50 in the test with MV-4-11 turned out to be 2 nM; in the test on U937, 690 nM. The molecule further registered an activity at CDK2E1 [2] of 52%.
Regarding `Fc1ccc(Nc2nccc(-c3cnc4ccccn34)n2)nc1` [Cmpd 51, N-(5-Fluoropyridin-2-yl)-4-(imidazo[1,2-a]pyridin-3-yl)pyrimidin-2-amine], the concentration for 50% growth inhibition (GI50) in the test with MV-4-11 was 72 nM; in the test with U937, 350 nM. On CDK2E1 [5], this molecule returned a Ki of 116 nM.
On to `CC(=O)N1CCN(c2ccc(Nc3nccc(-c4cnc5ccc(-c6ccoc6)cn45)n3)nc2)CC1` [Cmpd 25, 1-(4-(6-((4-(6-(Furan-3-yl)imidazo[1,2-a]pyridin-3-yl)pyrimidin-2-yl)amino)pyridin-3-yl)piperazin-1-yl)ethan-1-one], for which the remaining activity at 1 µM is 52% on CDK6/D3 (setting [7]) and 75% on CDK4/D1 (setting [7]). Also, the figures for the concentration for 50% growth inhibition (GI50) in the test on MV-4-11 and in the test on U937 were 5 nM and 765 nM, respectively. For the same molecule, the Ki on CDK7HMAT1 [1] is 186 nM; at CDK9/CyclinT1 it was 71 nM. Moreover, the figures for the activity at CDK2E1 [2] and on CDK1B [3] (1 µM) were 40% and 95%, respectively.
Regarding `c1ccn2c(-c3ccnc(Nc4ccc(N5CCOCC5)cn4)n3)cnc2c1` [Cmpd 4, 4-(Imidazo[1,2-a]pyridin-3-yl)-N-(5-morpholinopyridin-2-yl)pyrimidin-2-amine], the Ki at CDK1B [4] was 1480 nM; on CDK6/D3, 2900 nM. In addition, the activity on CDK7HMAT1 [6] was determined as 74%; at CDK2E1 [2], 72%. Moreover, the 50% growth inhibitory concentration (GI50) amounted to 38 nM with MV-4-11 and 3360 nM in the test with U937. Besides, the remaining activity at 10 µM on CDK4/D1 was determined as 38%; at CDK9/CyclinT1 (compound at 10 μM, read-out: residual enzymatic activity (%) at 10 μM), 28%.
As to `c1ccn2c(-c3ccnc(Nc4ccc(N5CCNCC5)cn4)n3)cnc2c1` [Cmpd 1, 4-(Imidazo[1,2-a]pyridin-3-yl)-N-(5-(piperazin-1-yl)pyridin-2-yl)pyrimidin-2-amine], the Ki at CDK1B [4] is 1340 nM; at CDK6/D3, 900 nM; at CDK7HMAT1 [1] it was 1190 nM; on CDK4/D1 it was 116 nM; at CDK9/CyclinT1, 37 nM. The concentration for 50% growth inhibition (GI50) was 9 nM with MV-4-11 and 497 nM with U937. Moreover, the activity on CDK2E1 [2] was 69%.
On to `CN1CCN(c2ccc(Nc3nccc(-c4cnc5ccccn45)n3)nc2)CC1` [Cmpd 2, 4-(Imidazo[1,2-a]pyridin-3-yl)-N-(5-(4-methylpiperazin-1-yl)pyridin-2-yl)pyrimidin-2-amine], for which the Ki at CDK1B [4] is 1990 nM; on FLT3(ITD), 235 nM; on CDK6/D3 it was 1050 nM; at CDK7HMAT1 [1], 1700 nM; at CDK4/D1 it was 155 nM; at CDK9/CyclinT1, 85 nM. At FLT3(D835Y), the Ki was 49 nM. For the same molecule, the GI50 amounted to 35 nM with MV-4-11 and 504 nM in the test with U937. The remaining activity at 1 µM on FLT3(WT) was found to be 33%.
